Here are results for 25 compounds from patent US20250340551A1, “SMALL MOLECULE MODULATORS OF STAT6” (Gilead Sciences, Inc., priority 2024, published 2025).

One assay deals with human STAT6 (Homo sapiens (Human), UniProt P42226). Kind of assay: Surface plasmon resonance assay (Biacore 8K, binding to immobilized STAT6). The note with it: human STAT6 aa122-658, N-terminal His-tag, CM5 chip, 25° C.; geometric mean; read-out: STAT6 SPR Kd. In a few lines: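 Run at 25° C with His-tagged STAT6 aa122-658 (insect-cell expressed) amine-coupled to a CM5 chip, reference-subtracted, in PBS-P+ with 2% DMSO. Multi-cycle kinetics: 60 sec. contact, up to 300 sec. dissociation. Affinity fitted from late report-point binding isotherms, with Rmax both free and fixed to theoretical 1:1.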
human STAT6, sequence (P42226 122-658): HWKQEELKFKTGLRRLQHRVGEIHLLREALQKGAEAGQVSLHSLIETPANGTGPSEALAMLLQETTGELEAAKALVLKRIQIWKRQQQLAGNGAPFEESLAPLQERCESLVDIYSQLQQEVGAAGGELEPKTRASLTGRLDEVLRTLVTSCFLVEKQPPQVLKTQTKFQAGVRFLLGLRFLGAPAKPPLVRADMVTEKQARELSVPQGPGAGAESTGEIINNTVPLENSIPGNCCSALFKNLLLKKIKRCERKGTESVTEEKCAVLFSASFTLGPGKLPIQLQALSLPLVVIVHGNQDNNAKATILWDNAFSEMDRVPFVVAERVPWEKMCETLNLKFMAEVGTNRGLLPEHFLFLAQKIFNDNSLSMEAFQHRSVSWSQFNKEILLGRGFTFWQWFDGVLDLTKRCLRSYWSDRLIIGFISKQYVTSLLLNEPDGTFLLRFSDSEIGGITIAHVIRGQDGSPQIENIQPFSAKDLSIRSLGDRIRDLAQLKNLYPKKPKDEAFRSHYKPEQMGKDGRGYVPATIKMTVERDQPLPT

The test system of assay [1] is Eotaxin-3 (CCL26) release in human whole blood stimulated with IL-4. Kind of assay: Human whole blood eotaxin-3 assay (IL-4 stimulated, Eotaxin-3 release). Type of assay: cell-based. The conditions noted are these: for Emax: 48 h. In short, it runs like this:
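Lithium-heparin blood preincubated 2 h at 37° C with 4-fold compound dilutions (0.5% DMSO, triplicates), then stimulated with 400 pM recombinant human IL-4 for 48 h. Eotaxin-3 in plasma supernatant measured by MSD immunoassay.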

As a reminder, the Kd is the free concentration of one partner at which half of the binding sites on the other are occupied at equilibrium, for simple one-to-one binding. “4-[1-[[4-(6-Amino-2-methoxy-3-pyridyl)-1-methyl-pyrrolo[2,3-b]pyridin-2-yl]methyl]-4-piperidyl]-N,N-bis(trideuteriomethyl)benzamide [Example 1k44]”: the Kd at human STAT6 amounted to 25.6 nM. Further, the “Eotaxin-3 Emax (%)” value in assay [1] (human whole blood, 400 pM recombinant human IL-4, 48 h, Emax provided for compounds with <80% Emax, geometric mean) amounted to 77%. By EC50 is commonly meant the concentration at which the effect is half-maximal. On to “4-[1-[[4-(6-Amino-2-methyl-3-pyridyl)-1-methyl-pyrrolo[2,3-b]pyridin-2-yl]methyl]-4-piperidyl]-N,N-dimethyl-benzamide [Example 1k12]”, for which, at human STAT6, the Kd came out at 20.1 nM. Also, the EC50 in assay [1] (human whole blood, 400 pM recombinant human IL-4, 48 h, EC50 provided for compounds with >80% Emax, geometric mean) was found to be 15700 nM. Regarding `CNc1ccc(-c2ccnc3c2cc([C@@H](C)N2CCC(c4ccc(C(=O)N(C)C)cc4)CC2)n3C)cn1` (single isomer, unassigned) [Example 1af8], the Kd on human STAT6 worked out at 14.6 nM. Besides, the EC50 in assay [1] (Homo sapiens, Hec50, 48 h) was 369 nM. The corresponding values for `C[C@@H]1C[C@H](c2ccc(C(=O)N(C)C)cc2)CCN1Cc1cc2c(-c3ccc(N)cn3)ccnc2n1C` (single isomer, unassigned) [Example 1q1] are 18.1 nM and 370 nM.

Turning to `C[C@@H]1C[C@H](c2ccc(C(=O)N(C)C)cc2)CCN1Cc1cc2c(-c3ccc(N)nc3C#N)ccnc2n1C` (single isomer, unassigned) [Example 1q4], at human STAT6, the Kd came to 18.4 nM. Also, in assay [1] (Homo sapiens, Hec50, 48 h), it took 138 nM to reach a half-maximal effect (EC50). Turning to `C[C@H]1C[C@@H](c2ccc(C(=O)N(C)C)cc2)CCN1Cc1cc2c(-c3ccc(N)nc3C#N)ccnc2n1C` (single isomer, unassigned) [Example 1q5], the Kd on human STAT6 was 57.4 nM. Also, the EC50 in assay [1] (Homo sapiens, Hec50, 48 h) amounted to 651 nM. In the case of `C[C@H]1C[C@@H](c2ccc(C(=O)N(C)C)cc2)CCN1Cc1cc2c(-c3ccc(N)cn3)ccnc2n1C` (single isomer, unassigned) [Example 1q6], the Kd at human STAT6 came out at 47.4 nM. This compound gave an EC50 in assay [1] (Homo sapiens, Hec50, 48 h) of 3080 nM.

One may read the Emax as the greatest response seen or fitted, relative to the assay's reference. Regarding `CNc1ccc(-c2ccnc3c2cc(CN2CC[C@H](c4ccc(C(=O)N(C)C)cc4)[C@H](F)C2)n3C)cn1` (stereo in doubt) [Example 1s28, N,N-dimethyl-4-[(3S,4R)-3-fluoro-1-[[1-methyl-4-[6-(methylamino)-3-pyridyl]pyrrolo[2,3-b]pyridin-2-yl]methyl]-4-piperidyl]benzamide], the Kd at human STAT6 is 20.6 nM. Further, the Emax in assay [1] (Homo sapiens) stood at 76.4%. As for `C[C@H](c1cc2c(-c3ccc(N)nc3)ccnc2n1C)N1CCC(c2ccc(C(=O)N(C)C)cc2)CC1` [Example 1af12, (R)-4-(1-(1-(4-(6-aminopyridin-3-yl)-1-methyl-1H-pyrrolo[2,3-b]pyridin-2-yl)ethyl)piperidin-4-yl)-N,N-dimethylbenzamide], the Kd at human STAT6 came to 12.9 nM. The compound further registered an EC50 in assay [1] (Homo sapiens, Hec50, 48 h) of 246 nM.

`C[C@H](c1cc2c(-c3ccc(N)nc3C#N)ccnc2n1C)N1CCC(c2ccc(C(=O)N(C)C)cc2)CC1` [Example 1af14, (R)-4-(1-(1-(4-(6-amino-2-cyanopyridin-3-yl)-1-methyl-1H-pyrrolo[2,3-b]pyridin-2-yl)ethyl)piperidin-4-yl)-N,N-dimethylbenzamide]: the Kd at human STAT6 amounted to 18.5 nM. In assay [1] (Homo sapiens, Hec50, 48 h), this compound yielded an EC50 of 135 nM. For the compound `Cc1cc(C(=O)N(C)C)ccc1C1CCN([C@H](C)c2cc3c(-c4ccc(N)cn4)ccnc3n2C)CC1` [Example 1af18, (R)-4-(1-(1-(4-(5-aminopyridin-2-yl)-1-methyl-1H-pyrrolo[2,3-b]pyridin-2-yl)ethyl)piperidin-4-yl)-N,N,3-trimethylbenzamide], the Kd at human STAT6 came out at 31.4 nM. In assay [1] (Homo sapiens, Hec50, 48 h), this compound came in with an EC50 of 2910 nM. For the compound `C[C@H](c1cc2c(-c3ccc(N)cn3)ccnc2n1C)N1CC=C(c2ccc(C(=O)N(C)C)cc2)CC1` [Example 1af20, (R)-4-(1-(1-(4-(5-aminopyridin-2-yl)-1-methyl-1H-pyrrolo[2,3-b]pyridin-2-yl)ethyl)-1,2,3,6-tetrahydropyridin-4-yl)-N,N-dimethylbenzamide], the Kd on human STAT6 amounted to 40.4 nM. In assay [1] (Homo sapiens), this compound displayed an Emax of 76.7%.

Turning to `[2H]C([2H])([2H])N(C(=O)c1ccc(C2=CCN([C@H](C)c3cc4c(-c5ccc(N)nc5C#N)ccnc4n3C)CC2)c(C)c1)C([2H])([2H])[2H]` [Example 1af26, (R)-4-(1-(1-(4-(6-amino-2-cyanopyridin-3-yl)-1-methyl-1H-pyrrolo[2,3-b]pyridin-2-yl)ethyl)-1,2,3,6-tetrahydropyridin-4-yl)-3-methyl-N,N-bis(methyl-d3)benzamide], the Kd at human STAT6 was determined as 20 nM. The EC50 in assay [1] (Homo sapiens, Hec50, 48 h) came out at 65.4 nM. `Cc1cc(C(=O)N(C)C)cc(F)c1C1=CCN([C@H](C)c2cc3c(-c4ccc(N)cn4)ccnc3n2C)CC1` [Example 1z33, (R)-4-(1-(1-(4-(5-aminopyridin-2-yl)-1-methyl-1H-pyrrolo[2,3-b]pyridin-2-yl)ethyl)-1,2,3,6-tetrahydropyridin-4-yl)-3-fluoro-N,N,5-trimethylbenzamide] displayed an EC50 in assay [1] (Homo sapiens, Hec50, 48 h) of 431 nM. The same measure, in the same setting: as for `[2H]C([2H])([2H])N(C(=O)c1cc(C)c(C2=CCN(Cc3cc4c(-c5ccc(NC)nn5)ccnc4n3C)CC2)c(F)c1)C([2H])([2H])[2H]` [Example 1z34, 3-fluoro-5-methyl-N,N-bis(methyl-d3)-4-(1-((1-methyl-4-(6-(methylamino)pyridazin-3-yl)-1H-pyrrolo[2,3-b]pyridin-2-yl)methyl)-1,2,3,6-tetrahydropyridin-4-yl)benzamide], the figure is 132 nM; as for `CN(C)C(=O)c1cc(F)c(C2=CCN(Cc3cc4c(-c5ccc(N)nc5)ccnc4n3C)CC2)c(C2CC2)c1` [Example 1z35, 4-(1-((4-(6-aminopyridin-3-yl)-1-methyl-1H-pyrrolo[2,3-b]pyridin-2-yl)methyl)-1,2,3,6-tetrahydropyridin-4-yl)-3-cyclopropyl-5-fluoro-N,N-dimethylbenzamide], 81.8 nM; as for `CNc1ccc(-c2ccnc3c2cc(C(C)N2CC=C(c4c(C)cc(C(=O)N(C)C)cc4F)CC2)n3C)cn1` (centres unmarked) [Example 1z36, 3-fluoro-N,N,5-trimethyl-4-(1-(1-(1-methyl-4-(6-(methylamino)pyridin-3-yl)-1H-pyrrolo[2,3-b]pyridin-2-yl)ethyl)-1,2,3,6-tetrahydropyridin-4-yl)benzamide], 38.6 nM. As for `CNc1ccc(-c2ccnc3c2cc([C@H](C)N2CC=C(c4c(C)cc(C(=O)N(C)C)cc4F)CC2)n3C)cn1` [Example 1z37, (S)-3-fluoro-N,N,5-trimethyl-4-(1-(1-(1-methyl-4-(6-(methylamino)pyridin-3-yl)-1H-pyrrolo[2,3-b]pyridin-2-yl)ethyl)-1,2,3,6-tetrahydropyridin-4-yl)benzamide], the EC50 in assay [1] (Homo sapiens, Hec50, 48 h) stood at 439 nM. On the same count and under the same terms, the figure for `CNc1ccc(-c2ccnc3c2cc([C@@H](C)N2CC=C(c4c(C)cc(C(=O)N(C)C)cc4F)CC2)n3C)cn1` [Example 1z38, (R)-3-fluoro-N,N,5-trimethyl-4-(1-(1-(1-methyl-4-(6-(methyl-amino)pyridin-3-yl)-1H-pyrrolo[2,3-b]pyridin-2-yl)ethyl)-1,2,3,6-tetrahydropyridin-4-yl)benzamide] is 12.9 nM.

Take `CNc1ccc(-c2ccnc3c2cc(C(C)N2CC=C(c4c(C)cc(C(=O)N(C)C)cc4F)CC2)n3C)nc1` (centres unmarked) [Example 1z39, 3-fluoro-N,N,5-trimethyl-4-(1-(1-(1-methyl-4-(5-(methylamino)pyridin-2-yl)-1H-pyrrolo[2,3-b]pyridin-2-yl)ethyl)-1,2,3,6-tetrahydropyridin-4-yl)benzamide]: the response in assay [1] (Homo sapiens, Hec50, 48 h) was half-maximal at 301 nM (EC50). Regarding `CNc1ccc(-c2ccnc3c2cc([C@H](C)N2CC=C(c4c(C)cc(C(=O)N(C)C)cc4F)CC2)n3C)nc1` [Example 1z40, (S)-3-fluoro-N,N,5-trimethyl-4-(1-(1-(1-methyl-4-(5-(methylamino)pyridin-2-yl)-1H-pyrrolo[2,3-b]pyridin-2-yl)ethyl)-1,2,3,6-tetrahydropyridin-4-yl)benzamide], in assay [1] (Homo sapiens, Hec50, 48 h), the EC50 was 3290 nM.

Consider `CNc1ccc(-c2ccnc3c2cc([C@@H](C)N2CC=C(c4c(C)cc(C(=O)N(C)C)cc4F)CC2)n3C)nc1` [Example 1z41, (R)-3-fluoro-N,N,5-trimethyl-4-(1-(1-(1-methyl-4-(5-(methyl-amino)pyridin-2-yl)-1H-pyrrolo[2,3-b]pyridin-2-yl)ethyl)-1,2,3,6-tetrahydropyridin-4-yl)benzamide], for which, in assay [1] (Homo sapiens, Hec50, 48 h), the EC50 was determined as 110 nM. On the same count and under the same terms, as for `CN(C)C(=O)c1cc(F)c(C2=CCN(Cc3cc4c(-c5ccc(N)nc5C#N)ccnc4n3C)CC2)c(F)c1` [Example 1z42, 4-(1-((4-(6-amino-2-cyanopyridin-3-yl)-1-methyl-1H-pyrrolo[2,3-b]pyridin-2-yl)methyl)-1,2,3,6-tetrahydropyridin-4-yl)-3,5-difluoro-N,N-dimethylbenzamide], the figure is 97.3 nM; as for `[2H]C([2H])([2H])N(C(=O)c1cc(C)c(C2=CCN([C@@H](C)c3cc4c(-c5ccc(NC)nn5)ccnc4n3C)CC2)c(F)c1)C([2H])([2H])[2H]` [Example 1z44, (S)-3-fluoro-5-methyl-N,N-bis(methyl-d3)-4-(1-(1-(1-methyl-4-(6-(methylamino)-pyridazin-3-yl)-1H-pyrrolo[2,3-b]pyridin-2-yl)ethyl)-1,2,3,6-tetrahydropyridin-4-yl)benzamide], 39.5 nM; as for `CN(C)C(=O)c1ccc(C2=CCN(Cc3cc4c(-c5ccc(N)nc5)ccnc4n3C)CC2)c(OC(F)(F)F)c1` [Example 1z45, 4-(1-((4-(6-aminopyridin-3-yl)-1-methyl-1H-pyrrolo[2,3-b]pyridin-2-yl)methyl)-1,2,3,6-tetrahydropyridin-4-yl)-N,N-dimethyl-3-(trifluoromethoxy)benzamide], 798 nM.
